Read-outs that look alike come from different tables or passages of the source.
Experiments:
[1] = target: T1, Recombinant human His-tagged Kat6a protein (amino acids 194-810) (Homo sapiens, UniProt Q92794); assay: Kat6a activity assay (TR-FRET, acetylation of Histone-H4-derived peptide); assay type: biochemical; settings: 60 mins at 22° C., 220 nM H4 peptide, 600 nM Acetyl Coenzyme A, read-out: KAT6A - DPF/HAT domain IC50 [mol/l] (arithmetic mean)
T1 construct: Kat6a protein (amino acids 194-810); His

[2] = target: T2, Recombinant human GST-tagged Kat6b protein (431-end) (Homo sapiens, UniProt Q8WYB5); assay: Kat6b activity assay (TR-FRET, acetylation of Histone-H4-derived peptide); assay type: biochemical; settings: 30 mins at 22° C., 500 nM H4 peptide, 600 nM Acetyl Coenzyme A, read-out: KAT6B activity assay IC50 [mol/l] (arithmetic mean)
T2 construct: Kat6b protein (431-end, N-terminal GST-tag); GST (N)
Protocol: Kat6b inhibitory activities of the compounds described in the present invention were quantified using a Fluorescence Resonance Energy Transfer (TR-FRET) assay which measures acetylation of a synthetic, biotinylated Histone-H4-derived peptide by the enzyme.
In this case 50 nl DMSO were used instead of compounds. […] IC50 values were determined by regression analysis based on a 4 parameter equation (minimum, maximum, ICM, Hill; Y=Max+(Min−Max)/(1+(X/ICso) Hill) using the Screener Software (Genedata).

[3] = system: ESR1 transcription in MVLN cells; assay: MVLN reporter assay: repression of ESR1 transcription (luciferase signal); assay type: cell-based; settings: Homo sapiens, MVLN, 24 h, luciferase signal after 24 h, read-out: MVLN reporter assay, IC50 [M] (arithmetic mean)
In short: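 To control for cell loss, Alamar Blue (2 h, 530/590 nm) precedes the 24 h luciferase measurement. The reporter is an ERE from the Xenopus vitellogenin A2 gene driving luciferase, stably transfected into ER-expressing MVLN cells; duplicate samples.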

[4] = system: ZR-75-1 cells; assay: ZR-75-1 proliferation assay; assay type: cell-based; settings: Homo sapiens, ZR-75-1, 144 h, Alamar Blue, read-out: ZR75-1 proliferation assay, EC50 [M] (arithmetic mean)
Text: For compound characterization cell survival assays were routinely run in two cell lines. ZR-75-1 is a breast carcinoma cell line containing a focal KAT6A amplification and high KAT6A protein expression. Proliferation of this cell line is inhibited upon treatment with KAT6A inhibitors. As a negative control cell line MDA-MB-436 were used. These cells carry a […] deletion of the KAT6A gene, have a low KAT6A protein expression and are not growth inhibited upon treatment with KAT6A inhibitors.
For measurements cell lines were plated at the below indicated concentration per […] in 96-well plates in a humidified incubator at 37° C. and 5% CO2.
ZR-75-1 (ATCC, CRL-1500; breast carcinoma); 3000 cells per well; culture medium: RPMI 1640 (Biochrom #FG 1215) medium containing 2.5% FBS (Biochrom #S0615).
Each sample was prepared as triplicate and rim wells were excluded. Plates were incubated at 37° C. and 5% CO2 for 144 h. Cell viability was measured by adding 10 μL of Alamar Blue Reagent (Invitrogen #DAL 1100) and plates were incubated for 2 h at 37° C. and 5% CO2. Fluorescence was measured at 590 nm wavelength with a Tecan Spark or Victor X3 MTP-Reader (PerkinElmer).

[5] = system: LCLC97TM1; assay: LCLC97TM1 proliferation assay; assay type: cell-based; settings: read-out: LCLC97TM1 proliferation assay, EC50 [M] (arithmetic mean)
[6] = system: MDA-MB-436 cells; assay: MDA-MB-436 proliferation assay (negative control cell line); assay type: cell-based; settings: Homo sapiens, 144 h, Alamar Blue, read-out: MDA-MB-436 proliferation assay, EC50 [M] (arithmetic mean)
In short: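 MDA-MB-436 cells (KAT6A deletion, low KAT6A protein) seeded at 3000 cells/well in DMEM/Ham's F12 with 2.5% FBS, treated in triplicate for 144 h at 37° C, 5% CO2. Viability read by Alamar Blue fluorescence at 590 nm after 2 h.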

[7] = Homo sapiens, LCLC-97TM1, LCLC97TM1

T1 sequence (Q92794 194-810): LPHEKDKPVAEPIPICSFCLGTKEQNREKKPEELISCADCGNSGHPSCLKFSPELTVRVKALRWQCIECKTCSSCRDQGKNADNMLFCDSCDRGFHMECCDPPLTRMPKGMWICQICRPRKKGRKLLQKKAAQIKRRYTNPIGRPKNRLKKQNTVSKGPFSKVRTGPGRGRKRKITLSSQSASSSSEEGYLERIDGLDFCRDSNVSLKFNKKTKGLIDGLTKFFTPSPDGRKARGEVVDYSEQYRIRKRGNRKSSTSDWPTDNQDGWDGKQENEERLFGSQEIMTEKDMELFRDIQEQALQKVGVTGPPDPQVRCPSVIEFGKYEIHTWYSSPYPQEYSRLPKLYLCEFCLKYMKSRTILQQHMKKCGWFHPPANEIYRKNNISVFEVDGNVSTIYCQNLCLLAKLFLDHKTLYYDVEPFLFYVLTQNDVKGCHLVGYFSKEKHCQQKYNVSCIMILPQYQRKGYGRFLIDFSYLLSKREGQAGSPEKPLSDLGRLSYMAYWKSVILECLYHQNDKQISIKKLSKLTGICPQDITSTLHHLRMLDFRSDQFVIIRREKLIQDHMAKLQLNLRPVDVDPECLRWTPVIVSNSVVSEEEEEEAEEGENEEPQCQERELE
T2 sequence (Q8WYB5 431-2073): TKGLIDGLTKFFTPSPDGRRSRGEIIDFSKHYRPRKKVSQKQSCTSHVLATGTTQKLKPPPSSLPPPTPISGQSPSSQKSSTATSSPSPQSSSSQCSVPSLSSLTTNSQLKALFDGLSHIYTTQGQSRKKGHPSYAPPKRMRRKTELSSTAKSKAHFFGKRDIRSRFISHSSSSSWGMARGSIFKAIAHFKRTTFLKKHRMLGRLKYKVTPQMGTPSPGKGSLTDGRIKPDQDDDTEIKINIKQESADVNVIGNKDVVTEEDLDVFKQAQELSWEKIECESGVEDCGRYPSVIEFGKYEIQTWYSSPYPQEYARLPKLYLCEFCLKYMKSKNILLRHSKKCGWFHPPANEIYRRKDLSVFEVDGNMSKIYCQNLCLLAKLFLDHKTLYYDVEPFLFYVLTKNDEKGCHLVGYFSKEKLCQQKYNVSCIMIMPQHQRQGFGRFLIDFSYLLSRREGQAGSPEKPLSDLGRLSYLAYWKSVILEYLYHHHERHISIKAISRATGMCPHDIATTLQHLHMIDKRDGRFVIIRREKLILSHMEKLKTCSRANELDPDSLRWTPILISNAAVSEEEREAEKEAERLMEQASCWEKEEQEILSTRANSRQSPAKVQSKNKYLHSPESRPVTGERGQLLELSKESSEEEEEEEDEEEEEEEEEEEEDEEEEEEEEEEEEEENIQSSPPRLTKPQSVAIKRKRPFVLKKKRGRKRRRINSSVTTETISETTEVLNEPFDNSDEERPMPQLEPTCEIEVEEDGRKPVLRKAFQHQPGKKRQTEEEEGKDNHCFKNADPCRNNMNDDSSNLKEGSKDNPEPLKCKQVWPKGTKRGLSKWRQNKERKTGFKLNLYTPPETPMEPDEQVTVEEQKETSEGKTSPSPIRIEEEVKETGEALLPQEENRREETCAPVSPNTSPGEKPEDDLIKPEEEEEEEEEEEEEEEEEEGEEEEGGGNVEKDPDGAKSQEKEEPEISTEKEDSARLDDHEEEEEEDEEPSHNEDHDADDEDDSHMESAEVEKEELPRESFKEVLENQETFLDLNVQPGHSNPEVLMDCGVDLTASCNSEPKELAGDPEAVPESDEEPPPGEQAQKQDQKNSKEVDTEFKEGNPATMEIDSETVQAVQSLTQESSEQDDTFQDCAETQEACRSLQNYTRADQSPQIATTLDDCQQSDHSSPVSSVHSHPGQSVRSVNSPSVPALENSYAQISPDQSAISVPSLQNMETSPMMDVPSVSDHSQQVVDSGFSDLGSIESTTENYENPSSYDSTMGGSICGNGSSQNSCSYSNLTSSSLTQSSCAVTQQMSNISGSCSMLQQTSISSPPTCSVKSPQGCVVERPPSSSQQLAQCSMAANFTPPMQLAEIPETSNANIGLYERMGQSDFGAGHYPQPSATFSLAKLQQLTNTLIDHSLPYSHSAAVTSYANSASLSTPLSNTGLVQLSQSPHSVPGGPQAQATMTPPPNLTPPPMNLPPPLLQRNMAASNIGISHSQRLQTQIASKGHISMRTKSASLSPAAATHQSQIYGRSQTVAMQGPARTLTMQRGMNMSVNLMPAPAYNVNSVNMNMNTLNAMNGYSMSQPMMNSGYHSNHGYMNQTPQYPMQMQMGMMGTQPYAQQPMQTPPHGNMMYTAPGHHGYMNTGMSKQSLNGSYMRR

| IC50 [1] [nM] | IC50 [2] [nM] | IC50 [3] [M] | EC50 [6] [M] | SMILES | EC50 [4] [M] | EC50 [5, 7] [M] | EC50 ([5]; LCLC97TM1) [M] |
| --- | --- | --- | --- | --- | --- | --- | --- |
| 1.86 | 5.65 | 9.04e-09 | > 2e-05 | CCOc1ccc(C(C)CC)cc1S(=O)(=O)NC(=O)c1cc2c(F)cc(N3CCC3)cc2o1 (racemic) [Example 207, 6-(Azetidin-1-yl)-N-[(5-sec-butyl-2-ethoxyphenyl)sulfonyl]-4-fluoro-1-benzofuran-2-carboxamide (rac)] | 1.03e-07 | 4.29e-08 | – |
| 4.22 | 28.8 | 1.83e-08 | > 2e-05 | CC(C)c1ccc(OCC2CC2(F)F)c(S(=O)(=O)NC(=O)c2cc3c(F)cc(N4CCC4)cc3o2)c1 (racemic) [Example 231, 6-(Azetidin-1-yl)-N-((2-((2,2-difluorocyclopropyl)methoxy)-5-isopropylphenyl)sulfonyl)-4-fluorobenzofuran-2-carboxamide (rac)] | 1.58e-07 | 1.99e-07 | – |
| 8.61 | 20.9 | 3.89e-08 | > 2e-05 | CCOc1cccc(OC)c1S(=O)(=O)NC(=O)c1cc2c(F)cc(N3CCC3)cc2o1 [Example 1, 6-(Azetidin-1-yl)-N-(2-ethoxy-6-methoxybenzene-1-sulfonyl)-4-fluoro-1-benzofuran-2-carboxamide] | 7.18e-08 | 2.13e-07 | – |
| 45.2 | 95.2 | 5.54e-08 | > 2e-05 | CCOc1ccccc1S(=O)(=O)NC(=O)c1cc2c(F)cc(N3CCC3)cc2o1 [Example 2, 6-(Azetidin-1-yl)-N-(2-ethoxybenzene-1-sulfonyl)-4-fluoro-1-benzofuran-2-carboxamide] | 1.64e-07 | – | 3.38e-07 |
| 145 | 292 | 3.85e-07 | > 2e-05 | O=C(NS(=O)(=O)c1ccccc1-c1ccccc1)c1cc2ccc(N3CCC3)cc2o1 [Example 26, 6-(Azetidin-1-yl)-N-([1,1′-biphenyl]-2-sulfonyl)-1-benzofuran-2-carboxamide] | 5.06e-07 | 3.9e-06 | – |
| 9.58 | 13.6 | 2.1e-08 | > 2e-05 | CC(C)c1cccnc1S(=O)(=O)NC(=O)c1cc2c(F)cc(N3CCC3)cc2o1 [Example 79, 6-(Azetidin-1-yl)-4-fluoro-N-[3-(propan-2-yl)pyridine-2-sulfonyl]-1-benzofuran-2-carboxamide] | 3.61e-08 | 3.9e-08 | – |
| 275 | 853 | 1.33e-07 | – | CCOc1ccccc1S(=O)(=O)NC(=O)c1cc2ccc(N3CC(F)C3)cc2o1 [Example 107, N-(2-Ethoxybenzene-1-sulfonyl)-6-(3-fluoroazetidin-1-yl)-1-benzofuran-2-carboxamide] | 4.1e-07 | 9.16e-07 | – |
| 4.48 | 11.6 | 1.08e-08 | > 2e-05 | CCOc1ccc(C(C)(C)C)cc1S(=O)(=O)NC(=O)c1cc2c(F)cc(N3CC(F)C3)cc2o1 [Example 113, N-(5-tert-butyl-2-ethoxybenzene-1-sulfonyl)-4-fluoro-6-(3-fluoroazetidin-1-yl)-1-benzofuran-2-carboxamide] | 2.94e-08 | 3.7e-08 | – |
| 37.3 | – | 7.51e-08 | > 2e-05 | Cc1ccc(OC(C)C)c(S(=O)(=O)NC(=O)c2cc3c(F)cc(N4CC(F)C4)cc3o2)c1 [Example 157, 4-Fluoro-6-(3-fluoroazetidin-1-yl)-N-{5-methyl-2-[(propan-2-yl)oxy]benzene-1-sulfonyl}-1-benzofuran-2-carboxamide] | 1.1e-07 | 7.07e-07 | – |
| 15.7 | – | 6.68e-08 | > 2e-05 | CCc1ccc2cccc(S(=O)(=O)NC(=O)c3cc4c(F)cc(N5CCC5)cc4o3)c2n1 [Example 171, 6-(Azetidin-1-yl)-N-(2-ethylquinoline-8-sulfonyl)-4-fluoro-1-benzofuran-2-carboxamide] | 3.98e-07 | 4.4e-07 | – |
| 8.25 | – | 4.72e-08 | > 2e-05 | COc1ccc(C2=CCOCC2)cc1S(=O)(=O)NC(=O)c1cc2c(F)cc(N3CCC3)cc2o1 [Example 196, 6-(azetidin-1-yl)-N-[5-(3,6-dihydro-2H-pyran-4-yl)-2-methoxybenzene-1-sulfonyl]-4-fluoro-1-benzofuran-2-carboxamide] | 1.44e-07 | 8.1e-07 | – |
| 7.7 | – | 1.79e-07 | 1.6e-06 | Cc1cc2c(c(S(=O)(=O)NC(=O)c3cc4c(F)cc(N5CCC5)cc4o3)c1C)OC(C)(C)C2 [Example 204, 6-(Azetidin-1-yl)-4-fluoro-N-(2,2,5,6-tetramethyl-2,3-dihydro-1-benzofuran-7-sulfonyl)-1-benzofuran-2-carboxamide] | 3.4e-07 | 8.36e-07 | – |
| 7.97 | – | 7.15e-08 | > 2e-05 | C=C(C)c1ccc(OC)c(S(=O)(=O)NC(=O)c2cc3c(F)cc(N4CCC4)cc3o2)c1 [Example 205, 6-(Azetidin-1-yl)-4-fluoro-N-[2-methoxy-5-(prop-1-en-2-yl)benzene-1-sulfonyl]-1-benzofuran-2-carboxamide] | 1.73e-07 | 9.37e-07 | – |
| 26.5 | – | 5.86e-08 | > 2e-05 | CCOc1ccc(C(F)(F)F)cc1S(=O)(=O)NC(=O)c1cc2c(F)cc(N3CCC3)cc2o1 [Example 209, 6-(azetidin-1-yl)-N-[2-ethoxy-5-(trifluoromethyl)phenyl]sulfonyl-4-fluoro-benzofuran-2-carboxamide] | 4.59e-08 | 6.32e-07 | – |
| 3.91 | 20.3 | 2.43e-08 | – | CC(C)c1ccc(OCC2CC2)c(S(=O)(=O)NC(=O)c2cc3c(F)cc(N4CCC4)cc3o2)c1 [Example 214, 6-(azetidin-1-yl)-N-[2-(cyclopropylmethoxy)-5-isopropyl-phenyl]sulfonyl-4-fluoro-benzofuran-2-carboxamide] | 4.47e-07 | 5.77e-07 | – |
| 7.18 | – | 7.43e-08 | > 2e-05 | CC(C)c1ccc(OCC(F)(F)F)c(S(=O)(=O)NC(=O)c2cc3c(F)cc(N4CCC4)cc3o2)c1 [Example 215, 6-(azetidin-1-yl)-4-fluoro-N-[5-isopropyl-2-(2,2,2-trifluoroethoxy)phenyl]sulfonyl-benzofuran-2-carboxamide] | 5.82e-07 | 2.83e-06 | – |
| 1.79 | – | 5.37e-08 | > 2e-05 | CC(C)(C)c1ccc(OCC2CC2)c(S(=O)(=O)NC(=O)c2cc3c(F)cc(N4CCC4)cc3o2)c1 [Example 226, 6-(Azetidin-1-yl)-N-[(5-(tert-butyl)-2-(cyclopropylmethoxy)phenyl)sulfonyl]-4-fluorobenzofuran-2-carboxamide] | 2.78e-08 | 4.63e-08 | – |
| 5.4 | – | 4.82e-08 | > 2e-05 | CC(C)(C)c1ccc(OCC(F)(F)F)c(S(=O)(=O)NC(=O)c2cc3c(F)cc(N4CCC4)cc3o2)c1 [Example 227, 6-(Azetidin-1-yl)-N-[(5-(tert-butyl)-2-(2,2,2-trifluoroethoxy)phenyl)sulfonyl]-4-fluorobenzofuran-2-carboxamide] | 7.19e-08 | 1.22e-07 | – |

— patent publication US20240279207A1, “SUBSTITUTED ACYL SULFONAMIDES FOR TREATING CANCER” (The Broad Institute, Inc., priority 2020, published 2024)
